Values after ≈ are worked out from the molar mass of the structure shown.
Columns and labels:
[1] = Competitive slurry conversion of crystalline modifications A1 and NF3 in organic solvents (Example 10); assay type: physicochemical; conditions: 25° C. and 50° C., in words
Protocol: PTFE-coated stirring rods were inserted into the dispersions prior to sealing the vials. Dispersions were agitated in closed vials for 5 days, using a magnetic stirrer, at 25° C. and 50° C., respectively. Solid-state residues were filtered, and analyzed by XRD to monitor morphic form after solvent slurrying.

[2] = Water Vapour Sorption Isotherm (25° C.); assay type: physicochemical; conditions: for Relative humidity range with small water uptake levels upon adsorption / Relative humidity above which pronounced water uptake levels are observed / Water uptake levels at elevated relative humidity (hydrate formation) / Relative humidity above which re-conversion to the hydrate form occurs upon adsorption / Relative humidity below which hydrate water is lost: 25° C.; for Relative humidity below which hydrate water is lost: desorption
Description: The crystalline modifications of the present invention can be characterized according to standard methods which can be found e.g. in Rolf Hilfiker, ‘Polymorphism in the Pharmaceutical Industry’, Wiley-VCH, Weinheim 2006, and references therein, e.g. X-Ray diffraction (XRD; chapter 6), IR and Raman spectroscopy (chapter 5), Differential Scanning Calorimetry (DSC) and Thermogravimetric Analysis (TGA) (chapter 3), Water Vapour Sorption Studies (chapter 9), or which can be found e.g. in H. G. Brittain (editor), Polymorphism in Pharmaceutical Solids, Vol. 95, Marcel Dekker Inc., New York 1999 (chapter 6: all there mentioned techniques).
Pronounced water uptake levels are observed above 70% RH (crystalline modification A type a) and above 90% RH (crystalline modification A type b), respectively, which results in formation of dihydrate crystalline modification H1 (water uptake levels of approx. 6 wt %) at elevated relative humidity (RH).
Pronounced water uptake levels are observed above 70% RH, which results in formation of crystalline hydrate modification NF5 (water uptake levels of approx. 5-6 wt %) at elevated relative humidity (RH).

[3] = Kinetic solubility determination in water:acetone 30:70 (v:v) after 2 hours (Example 14)
Protocol: (§2) The dispersion was agitated at RT for 2 hours at 450 rpm. After filtration of the dispersion after 2 hours, the filtrate is analysed by HPLC (dilution may be necessary before analysis).

[4] = Competitive slurry conversion of crystalline modifications H1 and NF5 in water (Example 12); assay type: physicochemical; conditions: aqueous slurrying at 25° C., in words
Protocol: (§1) A PTFE-coated stirring rod was inserted into the dispersion prior to sealing the vial. The dispersion was agitated in closed vial for 12 days, using a magnetic stirrer, at 25° C. The solid-state residue was filtered, and analyzed by XRD to monitor morphic form after solvent slurrying.

[5] = Competitive slurry conversion of crystalline modifications H1 and NF3 in water (Example 13); assay type: physicochemical; conditions: aqueous slurrying at 25° C., in words
Protocol: A PTFE-coated stirring rod was inserted into the dispersion prior to sealing the vial. The dispersion was agitated in closed vial for 5 days, using a magnetic stirrer, at 25° C. The solid-state residue was filtered, and analyzed by XRD to monitor morphic form after solvent slurrying.

[6] = physchem; conditions: organic solvent or mixture, thermodynamic from solid
Protocol: as §2

[7] = Competitive slurry conversion of crystalline modifications A1 and NF5 in water (Example 11); assay type: physicochemical; conditions: aqueous slurrying at 25° C., in words
Protocol: as §1

[8] = Solubility determination in water (Example 9); assay type: physicochemical; conditions: for pH value: solubility sample in water; for solubility at 1 h / solubility at 2 h: thermodynamic from solid, water, ambient temperature, maximal possible concentration 10 mg/mL
Protocol: The mixture is stirred at 1000 rpm on a magnetic stirring plate at ambient temperature. At the sampling point 100 μL of the respective solution/suspension are transferred to a 500 μL Eppendorff cap and are centrifuged for 5 min at 14000 rpm.

[9] = Stability in aqueous solution, salt compared to free base; assay type: physicochemical; conditions: in words, no data shown

In the case of Cn1cc(-c2ccc(=O)n(Cc3cccc(-c4ncc(OCCN5CCOCC5)cn4)c3)n2)cn1.O=P(O)(O)O [crystalline modification A1, 6-(1-methyl-1H-pyrazol-4-yl)-2-{3-[5-(2-morpholin-4-yl-ethoxy)-pyrimidin-2-yl]-benzyl}-2H-pyridazin-3-one dihydrogenphosphate anhydrate], the “Relative stability of forms A1 and NF3” value [1] is reported as “more stable form”, the “Relative humidity range with small water uptake levels upon adsorption” value (“Relative humidity range” for short) ([2]; type a) is reported as 0-70 % relative humidity (RH) and the “Relative humidity above which pronounced water uptake levels are observed” value ([2]; type a, results in formation of dihydrate H1) is reported as “above 70 % RH”. For the same molecule, the “Relative humidity range” value ([2]; type b) was 0-90 % RH, the “Relative humidity above which pronounced water uptake levels are observed” value ([2]; type b, results in formation of dihydrate H1) was “above 90 % RH” and the “Water uptake levels at elevated relative humidity (hydrate formation)” value ([2]; listed as A1) was “approx. 6 wt %”. The “Physical stable form in the humidity range 0% up to (upper limit)” value ([2]; varying relative humidity conditions) was “at least 70 % RH” and the “Solubility water:acetone (30:70, v:v) after 2 h” value ([3]; kinetic solubility, RT, 2 hours, 450 rpm) was 18200 µg/mL.

With Cn1cc(-c2ccc(=O)n(Cc3cccc(-c4ncc(OCCN5CCOCC5)cn4)c3)n2)cn1.O.O.O=P(O)(O)O [crystalline modification H1, 6-(1-methyl-1H-pyrazol-4-yl)-2-{3-[5-(2-morpholin-4-yl-ethoxy)-pyrimidin-2-yl]-benzyl}-2H-pyridazin-3-one dihydrogenphosphate dihydrate] the “Relative stability of forms H1 and NF5” value [4] was “stable form in an aqueous dispersion system”, the “Relative stability of forms H1 and NF3” value [5] was “more stable form in an aqueous dispersion system” and the “Relative humidity above which re-conversion to the hydrate form occurs upon adsorption” value [2] was over 70 % RH. For the same molecule, the “Relative humidity below which hydrate water is lost” value [2] was < 40 % relative humidity (RH).

With Cn1cc(-c2ccc(=O)n(Cc3cccc(-c4ncc(OCCN5CCOCC5)cn4)c3)n2)cn1.O=P(O)(O)O [crystalline modification NF3, 6-(1-methyl-1H-pyrazol-4-yl)-2-{3-[5-(2-morpholin-4-yl-ethoxy)-pyrimidin-2-yl]-benzyl}-2H-pyridazin-3-one dihydrogenphosphate] the “Relative humidity range” value [2] was 0-70 % relative humidity (RH), the “Water uptake levels at elevated relative humidity (hydrate formation)” value ([2]; listed as NF3) was 5-6 wt % and the “Relative humidity above which pronounced water uptake levels are observed” value ([2]; results in formation of hydrate NF5) was “above 70 % RH”. The solubility at 2 h [6] was 10600 µg/mL and the “Solubility level after 2 hours compared to form A1” value ([3]; water:acetone (30:70, v:v), in words) was “lower solubility level”.

For Cn1cc(-c2ccc(=O)n(Cc3cccc(-c4ncc(OCCN5CCOCC5)cn4)c3)n2)cn1.O.O=P(O)(O)O [crystalline modification NF5, 6-(1-methyl-1H-pyrazol-4-yl)-2-{3-[5-(2-morpholin-4-yl-ethoxy)-pyrimidin-2-yl]-benzyl}-2H-pyridazin-3-one dihydrogenphosphate hydrate], the “Relative stability of forms A1 and NF5” value [7] was “more stable form in an aqueous dispersion system”, the “Relative humidity above which re-conversion to the hydrate form occurs upon adsorption” value [2] was over 70 % RH and the “Relative humidity below which hydrate water is lost” value [2] was < 40 % relative humidity (RH).

In the case of Cn1cc(-c2ccc(=O)n(Cc3cccc(-c4ncc(OCCN5CCOCC5)cn4)c3)n2)cn1.O=P(O)(O)O [dihydrogenphosphate, 6-(1-methyl-1H-pyrazol-4-yl)-2-{3-[5-(2-morpholin-4-yl-ethoxy)-pyrimidin-2-yl]-benzyl}-2H-pyridazin-3-one dihydrogenphosphate], the “Solubility in aqueous solutions compared to free base” value ([8]; in words) is reported as “significantly higher solubility”, the pH value ([8]; sample point 1 h) is reported as 3.91 and the pH value ([8]; sample point 2 h) is reported as 3.97. The solubility at 1 h ([8]; sample point 1 h) was 9860 µg/mL, the solubility at 2 h ([8]; sample point 2 h) was over 10000 µg/mL and the “Stability in aqueous solution compared to free base” value [9] was “significantly superior stability in aqueous solution”.

Cn1cc(-c2ccc(=O)n(Cc3cccc(-c4ncc(OCCN5CCOCC5)cn4)c3)n2)cn1 [free base, 6-(1-methyl-1H-pyrazol-4-yl)-2-{3-[5-(2-morpholin-4-yl-ethoxy)-pyrimidin-2-yl]-benzyl}-2H-pyridazin-3-one] gave a solubility at 1 h ([8]; sample point 1 h) of 167 µg/mL (≈ 353 µM) and a solubility at 2 h ([8]; sample point 2 h) of 156 µg/mL (≈ 329 µM).
